Assay [1] deals with Pacific cod trypsin (PcT). In words: inverse substrate hydrolysis, absorbance at […] nm, Lineweaver-Burk. The note with it: 50 mM Tris-HCl pH 8.0, 10 mM CaCl2, 30°C, substrate in DMSO (10 of 200 μL). It counts as biochemical, Gadus macrocephalus.
In assay [2] the test system is Pacific cod trypsin (PcT). In words: p-nitroaniline release at […] nm, Lineweaver-Burk. The class given is biochemical, Gadus macrocephalus. The note with it: 50 mM Tris-HCl pH 8.0, 10 mM CaCl2, 30°C, substrate in DMSO (10 of 200 μL).

Counter-ions that a name gives are not always drawn.

`C[C@H](NC(=O)OC(C)(C)C)C(=O)Oc1ccc(C(=N)N)cc1` [5a, N-(tert-butoxycarbonyl)-L-alanine p-amidinophenyl esters]: the Michaelis constant (Km) (as a rule, the concentration of substrate that gives half-maximal velocity) in assay [1] amounted to 1.5 µM.
In the case of `N=C(N)NCCC[C@H](NC(=O)c1ccccc1)C(=O)Nc1ccc([N+](=O)[O-])cc1` [BAPA, N-benzoyl-L-arginine p-nitroanilide hydrochloride], the Km in assay [2] came out at 37 µM.

The record behind these values is article PMC3268023, “Simple Preparation of Pacific Cod Trypsin for Enzymatic Peptide Synthesis” (Journal of Amino Acids, 2011).
